Target: T1, Recombinant Human ENPP-2/Autotaxin (Homo sapiens, UniProt Q13822)
T1 construct: purchased R&D systems 5255-EN
Assay: LysoPLD activity measurement (autotaxin enzyme inhibition, choline release, TOOS reagent)
Assay type: biochemical
Conditions: LysoPLD inhibitory activity; substrate 14:0 LysoPC; absorbance at 555 nm
Experimental: Such a measurement method is a method of measuring the amount of choline, which is a reaction product in an autotaxin enzyme reaction, using a TOOS reagent. Depending on the activity of the autotaxin inhibitor, the amount of choline produced as a reaction product varies, which affects the final absorbance.
After 30 min, 14:0 LysoPC of the substrate diluted to a concentration of 300 μM with the enzyme reaction buffer solution was dispensed into each well by 50 μL and allowed to stand at 37° C. for 90 minutes. At this time, negative control wells were dispensed with 1% DMSO, substrate, and autotaxin instead of the compound, and positive control wells were dispensed with 1% DMSO and substrate.

IC50 [nM]	SMILES
10 to 100	O=C(O)c1cc(Cn2c(=O)n(-c3ccc(N4CCOCC4)cc3)c3c(F)c(Cl)ccc32)cc(F)c1F [Example 202, 5-((5-chloro-4-fluoro-3-(4-morpholinophenyl)-2-oxo-2,3-dihydro-1H-benzo[d]imidazol-1-yl)methyl)-2,3-difluorobenzoic acid]
10 to 100	CCC(=O)N1CCC(c2ccc(-n3c(=O)n(Cc4cccc(C(=O)O)c4F)c4ccc(Cl)c(F)c43)cc2)CC1 [Example 151, 3-((5-chloro-4-fluoro-2-oxo-3-(4-(1-propionylpiperidin-4-yl)phenyl)-2,3-dihydro-1H-benzo[d]imidazol-1-yl)methyl)-2-fluorobenzoic acid]
< 10	O=C(O)c1cccc(C2(n3c(=O)n(-c4ccc(S(=O)(=O)N5CCOCC5)cc4)c4cc(Cl)ccc43)CC2)c1 [Example 212, 3-(1-(5-chloro-3-(4-(morpholinosulfonyl)phenyl)-2-oxo-2,3-dihydro-1H-benzo[d]imidazol-1-yl)cyclopropyl)benzoic acid]
< 10	O=C(O)c1cccc(C2(n3c(=O)n(-c4ccc(C(=O)N5CC(O)C5)cc4)c4cc(Cl)cnc43)CC2)c1 [Example 224, 3-(1-(6-chloro-1-(4-(3-hydroxyazetidine-1-carbonyl)phenyl)-2-oxo-1,2-dihydro-3H-imidazo[4,5-b]pyridin-3-yl)cyclopropyl)benzoic acid]
100 to 1000	CC(C)c1ccc(-n2c(=O)n(Cc3cccc(C(=O)O)c3)c3ccc(Cl)cc32)cc1 [Example 17, 3-((5-chloro-3-(4-isopropylphenyl)-2-oxo-2,3-dihydro-1H-benzo[d]imidazol-1-yl)methyl)benzoic acid]
< 10	O=C(O)c1cccc(C2(n3c(=O)n(-c4ccc(C5(O)COC5)cc4)c4cc(Cl)ccc43)CC2)c1 [Example 258, 3-(1-(5-chloro-3-(4-(3-hydroxyoxetan-3-yl)phenyl)-2-oxo-2,3-dihydro-1H-benzo[d]imidazol-1-yl)cyclopropyl)benzoic acid]
100 to 1000	CCCc1ccc(-n2c(=O)n(Cc3cccc(C(=O)O)c3)c3ccc(Cl)cc32)cc1 [Example 2, 3-((5-chloro-2-oxo-3-(4-propylphenyl)-2,3-dihydro-1H-benzo[d]imidazol-1-yl)methyl)benzoic acid]
10 to 100	COc1ccc(-n2c(=O)n(Cc3cccc(C(=O)O)c3)c3ccc(Cl)cc32)cc1 [Example 5, 3-((5-chloro-3-(4-methoxyphenyl)-2-oxo-2,3-dihydro-1H-benzo[d]imidazol-1-yl)methyl)benzoic acid]
10 to 100	CN(C)c1ccc(-n2c(=O)n(Cc3cc(F)cc(C(=O)O)c3)c3c(F)cc(Cl)cc32)cc1 [Example 65, 3-((5-chloro-3-(4-(dimethylamino)phenyl)-7-fluoro-2-oxo-2,3-dihydro-1H-benzo[d]imidazol-1-yl)methyl)-5-fluorobenzoic acid]
< 10	O=C(O)c1cccc(C2(n3c(=O)n(-c4ccc(C5=CCOC5)cc4)c4cc(Cl)ccc43)CC2)c1 [Example 124, 3-(1-(5-chloro-3-(4-(2,5-dihydrofuran-3-yl)phenyl)-2-oxo-2,3-dihydro-1H-benzo[d]imidazol-1-yl)cyclopropyl)benzoic acid]
100 to 1000	CC(C)n1cc(-n2c(=O)n(Cc3cccc(C(=O)O)c3)c3ccc(Cl)cc32)cn1 [Example 89, 3-((5-chloro-3-(1-isopropyl-1H-pyrazol-4-yl)-2-oxo-2,3-dihydro-1H-benzo[d]imidazol-1-yl)methyl)benzoic acid]
< 10	CN(C)C(=O)c1ccc(-n2c(=O)n(Cc3cccc(C(=O)O)c3F)c3ccc(Cl)cc32)cc1 [Example 38, 3-((5-chloro-3-(4-(dimethylcarbamoyl)phenyl)-2-oxo-2,3-dihydro-1H-benzo[d]imidazol-1-yl)methyl)-2-fluorobenzoic acid]
< 10	O=C(O)c1cccc(C2(n3c(=O)n(-c4ccc(C(=O)N5CCCC5)cc4)c4cc(Cl)ccc43)CC2)c1 [Example 63, 3-(1-(5-chloro-2-oxo-3-(4-(pyrrolidine-1-carbonyl)phenyl)-2,3-dihydro-1H-benzo[d]imidazol-1-yl)cyclopropyl)benzoic acid]
10 to 100	C[C@H]1COCCN1C(=O)Cc1ccc(-n2c(=O)n(C3(c4cccc(C(=O)O)c4)CC3)c3ccc(Cl)cc32)cc1 [Example 177, (S)-3-(1-(5-chloro-3-(4-(2-(3-methylmorpholino)-2-oxoethyl)phenyl)-2-oxo-2,3-dihydro-1H-benzo[d]imidazol-1-yl)cyclopropyl)benzoic acid]
< 10	O=C(O)c1cccc(C2(n3c(=O)n(-c4ccc(CC5COC5)cc4)c4cc(Cl)ccc43)CC2)c1 [Example 240, 3-(1-(5-chloro-3-(4-(oxetan-3-ylmethyl)phenyl)-2-oxo-2,3-dihydro-1H-benzo[d]imidazol-1-yl)cyclopropyl)benzoic acid]
< 10	O=C(O)c1cccc(C2(n3c(=O)n(-c4ccc(N5CCCC5)cc4)c4cc(Cl)ccc43)CC2)c1 [Example 146, 3-(1-(5-chloro-2-oxo-3-(4-(pyrrolidin-1-yl)phenyl)-2,3-dihydro-1H-benzo[d]imidazol-1-yl)cyclopropyl)benzoic acid]
< 10	O=C(O)c1cccc(C2(n3c(=O)n(-c4ccc(-c5nnc(C6CCC(F)(F)CC6)o5)cc4)c4cc(Cl)ccc43)CC2)c1 [Example 138, 3-(1-(5-chloro-3-(4-(5-(4,4-difluorocyclohexyl)-1,3,4-oxadiazol-2-yl)phenyl)-2-oxo-2,3-dihydro-1H-benzo[d]imidazol-1-yl)cyclopropyl)benzoic acid]
10 to 100	CCOc1ccc(-n2c(=O)n(Cc3cccc(C(=O)O)c3)c3ccc(Cl)cc32)cc1 [Example 20, 3-((5-chloro-3-(4-ethoxyphenyl)-2-oxo-2,3-dihydro-1H-benzo[d]imidazol-1-yl)methyl)benzoic acid]
10 to 100	O=C(O)c1cc(F)cc(C2(n3c(=O)n(-c4ccc(C5CCOCC5)nc4)c4cc(Cl)ccc43)CC2)c1 [Example 262, 3-(1-(5-chloro-2-oxo-3-(6-(tetrahydro-2H-pyran-4-yl)pyridin-3-yl)-2,3-dihydro-1H-benzo[d]imidazol-1-yl)cyclopropyl)-5-fluorobenzoic acid]
< 10	O=C(O)c1cccc(C2(n3c(=O)n(-c4ccc(C(=O)N5CCCC5)cc4)c4cc(Cl)ccc43)CC2)c1F [Example 67, 3-(1-(5-chloro-2-oxo-3-(4-(pyrrolidine-1-carbonyl)phenyl)-2,3-dihydro-1H-benzo[d]imidazol-1-yl)cyclopropyl)-2-fluorobenzoic acid]
10 to 100	O=C(O)c1cc(F)cc(C2(n3c(=O)n(-c4ccc(N5CC6(CCC6)C5)cc4)c4cc(Cl)ccc43)CC2)c1 [Example 196, 3-(1-(3-(4-(2-azaspiro[3.3]heptan-2-yl)phenyl)-5-chloro-2-oxo-2,3-dihydro-1H-benzo[d]imidazol-1-yl)cyclopropyl)-5-fluorobenzoic acid]
100 to 1000	O=C(O)c1cccc(Cn2c(=O)n(-c3ccc(-c4ccc(Cl)cc4)cc3)c3cc(Cl)ccc32)c1 [Example 7, 3-((5-chloro-3-(4′-chloro-[1,1′-biphenyl]-4-yl)-2-oxo-2,3-dihydro-1H-benzo[d]imidazol-1-yl)methyl)benzoic acid]
< 10	CN(C)C(=O)c1ccc(-n2c(=O)n(Cc3cccc(C(=O)O)c3)c3ccc(Cl)cc32)cc1 [Example 21, 3-((5-chloro-3-(4-(dimethylcarbamoyl)phenyl)-2-oxo-2,3-dihydro-1H-benzo[d]imidazol-1-yl)methyl)benzoic acid]
< 10	O=C(O)c1cccc(Cn2c(=O)n(-c3ccc(C(=O)N4CCCC4)cc3)c3cc(Cl)ccc32)c1F [Example 56, 3-((5-chloro-2-oxo-3-(4-(pyrrolidine-1-carbonyl)phenyl)-2,3-dihydro-1H-benzo[d]imidazol-1-yl)methyl)-2-fluorobenzoic acid]
10 to 100	CC(C)(c1cccc(C(=O)O)c1)n1c(=O)n(-c2ccc(C3CCOCC3)cc2)c2cc(Cl)ccc21 [Example 158, 3-(2-(5-chloro-2-oxo-3-(4-(tetrahydro-2H-pyran-4-yl)phenyl)-2,3-dihydro-1H-benzo[d]imidazol-1-yl)propan-2-yl)benzoic acid]
100 to 1000	O=C(O)c1cccc(Cn2c(=O)n(-c3ccc(OCC4CCC4)cc3)c3cc(Cl)ccc32)c1 [Example 27, 3-((5-chloro-3-(4-(cyclobutylmethoxy)phenyl)-2-oxo-2,3-dihydro-1H-benzo[d]imidazol-1-yl)methyl)benzoic acid]
10 to 100	O=C(O)c1cccc(C2(n3c(=O)n(-c4ccc(C5CCOCC5)nc4)c4cc(Cl)ccc43)CC2)c1 [Example 261, 3-(1-(5-chloro-2-oxo-3-(6-(tetrahydro-2H-pyran-4-yl)pyridin-3-yl)-2,3-dihydro-1H-benzo[d]imidazol-1-yl)cyclopropyl)benzoic acid]
< 10	CN(C)C(=O)Cc1ccc(-n2c(=O)n(C3(c4cccc(C(=O)O)c4)CC3)c3ccc(Cl)cc32)cc1 [Example 139, 3-(1-(5-chloro-3-(4-(2-(dimethylamino)-2-oxoethyl)phenyl)-2-oxo-2,3-dihydro-1H-benzo[d]imidazol-1-yl)cyclopropyl)benzoic acid]
10 to 100	CCCn1cc(-n2c(=O)n(Cc3cccc(C(=O)O)c3)c3ccc(Cl)c(F)c32)cn1 [Example 88, 3-((5-chloro-4-fluoro-2-oxo-3-(1-propyl-1H-pyrazol-4-yl)-2,3-dihydro-1H-benzo[d]imidazol-1-yl)methyl)benzoic acid]
< 10	O=C(O)c1cc(F)cc(C2(n3c(=O)n(-c4ccc(C(=O)N5CC6(CCOCC6)C5)cc4)c4cc(Cl)cnc43)CC2)c1 [Example 275, 3-(1-(1-(4-(7-oxa-2-azaspiro[3.5]nonane-2-carbonyl)phenyl)-6-chloro-2-oxo-1,2-dihydro-3H-imidazo[4,5-b]pyridin-3-yl)cyclopropyl)-5-fluorobenzoic acid]
